# Where two headings read alike, the source gives them in different places.
# How the values were obtained:
# [1] = target: Beta Secretase enzyme (BACE) (Homo sapiens, UniProt P56817); experiment: In vitro enzymatic BACE FRET (fluorescence resonance energy transfer) assay; format: biochemical; details: average IC50, enzyme assay; read-out: BACE 1 FRET assay
# Summary of the method: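 Enzyme activity was measured at pH 4.2 (0.05 M acetate, 10% DMSO final, 100 uM genapol) by cleavage of a 50 nM quenched fluorogenic peptide. After one hour, Tris was added to neutralise the pH and fluorescence was recorded.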
# [2] = system: Aβ40 in conditioned medium of cells stably expressing Amyloid Precursor Protein (APP); experiment: In vitro BACE cell-based assay (Aβ40 in conditioned medium, sandwich ELISA); details: read-out: HEK cell assay
# Summary of the method: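 Quantification relied on pAb40/6E10 sandwich ELISA with Europium fluorescence counts, and IC50 was fitted versus concentration.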
# [3] = Homo sapiens, HEK293, average IC50, HEK cells
# [4] = Homo sapiens, HEK293, average IC50
# Beta Secretase enzyme (BACE), sequence (P56817 46-501, species assumed): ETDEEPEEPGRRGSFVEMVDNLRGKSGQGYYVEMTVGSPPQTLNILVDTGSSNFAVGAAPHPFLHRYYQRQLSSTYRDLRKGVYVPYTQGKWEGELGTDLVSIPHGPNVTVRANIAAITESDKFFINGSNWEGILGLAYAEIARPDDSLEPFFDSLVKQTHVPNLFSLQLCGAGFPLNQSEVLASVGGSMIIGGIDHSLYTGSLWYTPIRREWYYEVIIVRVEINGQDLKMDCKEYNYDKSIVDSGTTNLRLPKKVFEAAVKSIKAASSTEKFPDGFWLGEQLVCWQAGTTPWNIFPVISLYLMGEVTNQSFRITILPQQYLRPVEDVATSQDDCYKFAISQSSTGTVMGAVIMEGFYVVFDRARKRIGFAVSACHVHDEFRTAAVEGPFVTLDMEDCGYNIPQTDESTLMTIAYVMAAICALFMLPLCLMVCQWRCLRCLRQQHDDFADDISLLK
Compound,IC50 [1] [nM],"IC50 [2, 3] [nM]","IC50 [2, 4] [nM]",IC50 [2] [nM]
"NC1=NC2(CS1)c1cc(I)ccc1Oc1ncc(Br)cc12 (centres unmarked) [Example 522, 3-bromo-7-iodospiro[chromeno[2,3-b]pyridine-5,4′-[1,3]thiazol]-2′-amine]",4500,10000,,
"NC1=N[C@@]2(CO1)c1cc(-c3cccnc3)ccc1Oc1cnc(-c3ccnc(F)c3)cc12 [Example 536, (5S)-3-(2-fluoro-4-pyridinyl)-7-(3-pyridinyl)spiro[chromeno[2,3-c]pyridine-5,4′-[1,3]oxazol]-2′-amine]",2.3,27.1,,
"NC1=N[C@@]2(CO1)c1cc(-c3cccnc3F)ccc1Oc1c2cc(Br)nc1F [Example 734, (5S)-3-bromo-1-fluoro-7-(2-fluoro-3-pyridinyl)spiro[chromeno[2,3-c]pyridine-5,4′-[1,3]oxazol]-2′-amine]",7.8,,2260,
"NC1=N[C@]2(CS1)c1cc(-c3cccnc3F)ccc1Oc1c2cc(C2=CCOCC2)nc1F [Example 998, (5R)-3-(3,6-dihydro-2H-pyran-4-yl)-1-fluoro-7-(2-fluoro-3-pyridinyl)spiro[chromeno[2,3-c]pyridine-5,4′-[1,3]thiazol]-2′-amine]",13.5,,218,
"NC1=N[C@@]2(CO1)c1cc(-c3cncc(C4=CCOCC4)c3)ccc1Oc1cnc(C3=CCOCC3)cc12 [Example 231, (5S)-3-(3,6-dihydro-2H-pyran-4-yl)-7-(5-(3,6-dihydro-2H-pyran-4-yl)-3-pyridinyl)spiro[chromeno[2,3-c]pyridine-5,4′-[1,3]oxazol]-2′-amine]",34,,106,
"NC1=N[C@@]2(CO1)c1cc(-c3cccc(C(F)(F)F)c3)ccc1Oc1cnc(C3=CCOCC3)cc12 [Example 145, (5S)-3-(3,6-dihydro-2H-pyran-4-yl)-7-(3-(trifluoromethyl)phenyl)spiro[chromeno[2,3-c]pyridine-5,4′-[1,3]oxazol]-2′-amine]",2.2,,81.9,
"C1=C(c2cnc3c(c2)[C@]2(COC(NCc4ccccc4)=N2)c2cc(OCc4ccccc4)ccc2O3)CCOC1 [Example 968, (5S)-N-benzyl-7-(benzyloxy)-3-(3,6-dihydro-2H-pyran-4-yl)spiro[chromeno[2,3-b]pyridine-5,4′-[1,3]oxazol]-2′-amine]",1260,≥ 10000,,
"NC1=N[C@@]2(CO1)c1cc(-c3cncc(F)c3)ccc1Oc1c(F)cc([C@H]3CCCOC3)cc12 [Example 285, (4S)-4′-fluoro-7′-(5-fluoro-3-pyridinyl)-2′-((3R)-tetrahydro-2H-pyran-3-yl)spiro[1,3-oxazole-4,9′-xanthen]-2-amine]",2.4,,20.4,
"NC1=N[C@]2(CO1)c1cc(N3CC[C@@H](F)C3)cc(F)c1Oc1ccc(-c3cncnc3)c(F)c12 [Example 1052, (4R)-1′,5′-difluoro-7′-((3R)-3-fluoro-1-pyrrolidinyl)-2′-(5-pyrimidinyl)spiro[1,3-oxazole-4,9′-xanthen]-2-amine]",38.3,,67,
"NC1=N[C@@]2(CO1)c1cc(-c3ccc(F)nc3)ccc1Oc1c(F)cc(OC[C@H]3CC3(F)F)cc12 [Example 261, (4S)-2′-(((1R)-2,2-difluorocyclopropyl)methoxy)-4′-fluoro-7′-(6-fluoro-3-pyridinyl)spiro[1,3-oxazole-4,9′-xanthen]-2-amine]",6.8,,71.8,
"Cn1cc(-c2cc3c(cc2F)Oc2ccc(-c4cccnc4F)cc2[C@@]32COC(N)=N2)cn1 [Example 311, (4S)-3′-fluoro-7′-(2-fluoro-3-pyridinyl)-2′-(1-methyl-1H-pyrazol-4-yl)spiro[1,3-oxazole-4,9′-xanthen]-2-amine]",3.9,,19.5,
"CC1(C#Cc2cnc3c(c2)[C@@]2(COC(N)=N2)c2cc(-c4cncc(Cl)c4)c(F)cc2O3)COC1 [Example 625, (5R)-7-(5-chloro-3-pyridinyl)-8-fluoro-3-((3-methyl-3-oxetanyl)ethynyl)spiro[chromeno[2,3-b]pyridine-5,4′-[1,3]oxazol]-2′-amine]",901,2210,,
"CC1(COc2cc3c(cc2F)Oc2ccc(-c4cccc(Cl)c4)cc2[C@@]32COC(N)=N2)COC1 [Example 310, (4S)-7′-(3-chlorophenyl)-3′-fluoro-2′-((3-methyl-3-oxetanyl)methoxy)spiro[1,3-oxazole-4,9′-xanthen]-2-amine]",3.2,,113,
"Cc1ncccc1-c1ccc2c(c1)[C@@]1(COC(N)=N1)c1cc(-c3ccnc(F)c3)ncc1O2 [Example 248, (5S)-3-(2-fluoro-4-pyridinyl)-7-(2-methyl-3-pyridinyl)spiro[chromeno[2,3-c]pyridine-5,4′-[1,3]oxazol]-2′-amine]",99.1,,191,
"COC[C@H]1SC(N)=NC12c1cc(-c3cccnc3F)ccc1Oc1cnc(-c3ccnc(F)c3)cc12 (single isomer, unassigned) [Example 1095, (4′S/R,5′S)-7-(2-fluoropyridin-3-yl)-3-(2-fluoropyridin-4-yl)-5′-(methoxymethyl)-5′H-spiro[chromeno[2,3-c]pyridine-5,4′-thiazol]-2′-amine]",573,,,5990

# The next compounds have a lower IC50 [1] than those just listed; values first:
IC50 [1] [nM],"IC50 [2, 3] [nM]","IC50 [2, 4] [nM]",Compound,IC50 [2] [nM]
1.6,,8.8,"COc1cncc(-c2ccc3c(c2)[C@@]2(COC(N)=N2)c2cc(C4=CCOCC4)ncc2O3)c1 [Example 144, (5S)-3-(3,6-dihydro-2H-pyran-4-yl)-7-(5-methoxy-3-pyridinyl)spiro[chromeno[2,3-c]pyridine-5,4′-[1,3]oxazol]-2′-amine]",
1.4,49,,"NC1=N[C@@]2(CO1)c1cc(-c3cccnc3F)ccc1Oc1nc(F)c(C3=CCCOC3)cc12 [Example 903, (5S)-3-(5,6-dihydro-2H-pyran-3-yl)-2-fluoro-7-(2-fluoro-3-pyridinyl)spiro[chromeno[2,3-b]pyridine-5,4′-[1,3]oxazol]-2′-amine]",
1.2,,16,"NC1=N[C@@]2(CS1)c1cc(-c3cnccc3F)ccc1Oc1ncc(C3=CCOCC3)cc12 [Example 768, (5S)-3-(3,6-dihydro-2H-pyran-4-yl)-7-(4-fluoro-3-pyridinyl)spiro[chromeno[2,3-b]pyridine-5,4′-[1,3]thiazol]-2′-amine]",
1.1,18.8,,"NC1=N[C@@]2(CO1)c1cc(-c3cncnc3)ccc1Oc1cnc(-c3cc(F)nc(F)c3)cc12 [Example 542, (5S)-3-(2,6-difluoro-4-pyridinyl)-7-(5-pyrimidinyl)spiro[chromeno[2,3-c]pyridine-5,4′-[1,3]oxazol]-2′-amine]",
0.8,,7.8,"NC1=N[C@@]2(CO1)c1cc(-c3cccnc3F)ccc1Oc1c(F)cc(N3CCC4(CC3)COC4)cc12 [Example 189, (4S)-4′-fluoro-7′-(2-fluoro-3-pyridinyl)-2′-(2-oxa-7-azaspiro[3.5]non-7-yl)spiro[1,3-oxazole-4,9′-xanthen]-2-amine]",
0.8,13,,"CC1(C#Cc2cnc3c(c2)[C@]2(CSC(N)=N2)c2cc(-c4cnccn4)ccc2O3)COC1 [Example 666, (5S)-3-((3-methyl-3-oxetanyl)ethynyl)-7-(2-pyrazinyl)spiro[chromeno[2,3-b]pyridine-5,4′-[1,3]thiazol]-2′-amine]",
0.8,,12,"Cc1cc(-c2cc3c(c(F)n2)Oc2ccc(-c4cccnc4F)cc2[C@@]32COC(N)=N2)ccn1 [Example 744, (5S)-1-fluoro-7-(2-fluoro-3-pyridinyl)-3-(2-methyl-4-pyridinyl)spiro[chromeno[2,3-c]pyridine-5,4′-[1,3]oxazol]-2′-amine]",
0.7,,9,"CC#Cc1cncc(-c2ccc3c(c2)[C@@]2(COC(N)=N2)c2cc(-c4ccncc4)nc(OC)c2O3)c1 [Example 837, (5S)-1-methoxy-7-(5-(1-propyn-1-yl)-3-pyridinyl)-3-(4-pyridinyl)spiro[chromeno[2,3-c]pyridine-5,4′-[1,3]oxazol]-2′-amine]",
0.6,5,,"CC1(COc2cc(F)c3c(c2)[C@]2(COC(N)=N2)c2cc(-c4cnccc4F)ccc2O3)COC1 [Example 604, (4S)-4′-fluoro-7′-(4-fluoro-3-pyridinyl)-2′-((3-methyl-3-oxetanyl)methoxy)spiro[1,3-oxazole-4,9′-xanthen]-2-amine]",
0.5,26.6,,"NC1=N[C@@]2(CO1)c1cc(-c3cccnc3F)ccc1Oc1cnc(-c3ccc(F)c(F)c3)cc12 [Example 534, (5S)-3-(3,4-difluorophenyl)-7-(2-fluoro-3-pyridinyl)spiro[chromeno[2,3-c]pyridine-5,4′-[1,3]oxazol]-2′-amine]",
0.4,11,,"CC(C)(C)C#Cc1cc2c(nc1F)Oc1ccc(-c3cccnc3F)cc1[C@@]21COC(N)=N1 [Example 685, (5S)-3-(3,3-dimethyl-1-butyn-1-yl)-2-fluoro-7-(2-fluoro-3-pyridinyl)spiro[chromeno[2,3-b]pyridine-5,4′-[1,3]oxazol]-2′-amine]",
0.4,,2,"C=Cc1cc2c(c(F)n1)Oc1ccc(-c3cncc(F)c3)cc1C21COC(N)=N1 (centres unmarked) [Example 848, 3-ethenyl-1-fluoro-7-(5-fluoro-3-pyridinyl)spiro[chromeno[2,3-c]pyridine-5,4′-[1,3]oxazol]-2′-amine]",
0.3,,6,"NC1=N[C@@]2(CO1)c1cc(-c3cncc(C#CCO)c3)ccc1Oc1cnc(-c3ccnc(F)c3)cc12 [Example 825, 3-(5-((5S)-2′-amino-3-(2-fluoro-4-pyridinyl)spiro[chromeno[2,3-c]pyridine-5,4′-[1,3]oxazol]-7-yl)-3-pyridinyl)-2-propyn-1-ol]",

# Reference: US8883782B2, “Spiro-tetracyclic ring compounds as beta-secretase modulators and methods of use” (Amgen Inc., priority 2010, dated 2014)
